Assay results published in patent US7553823B2, “C-pyrazole A2A receptor agonists” (CV Therapeutics, Inc., priority 1999, dated 2009).
Like-named read-outs stand apart in the source and are kept apart here.

Key:
A2A AdoR [1] = assay: Coronary blood flow and reversal time of coronary vasodilation in open-chest anesthetized pigs; conditions: pig, intracoronary infusion 50 μg/kg/min
Method: Farm pigs weighing 22-27 kg were used in this study. […] In addition, animals were used in accordance with the guidelines of the University of Kentucky Institutional Animal Care and Use Protocol.
Anesthesia was anesthetized with ketamine (20 mg/kg, i.m.) and sodium pentobarbital (15-18 mg/kg i.v.). Anesthesia was maintained with additional sodium pentobarbital (1.5-2 mg/kg, i.v.) every 15-20 minutes. Ventilation was maintained via a tracheotomy using a mixture of room air and 100% O2. Tidal volume, respiratory rate and fraction of O2 in inspired air were adjusted to maintain normal arterial blood gas (ABG) and pH values. […] Lactate Ringers solution was administered via an ear or femoral vein, at 5-7 ml/kg/min after a initial bolus of 300-400 ml. A catheter was inserted into the femoral artery to monitor arterial blood pressure and to obtain ABG samples.
The heart was exposed through a median sternotomy, and suspended in a pericardial cradle. Left ventricular pressure (LVP) was measured with a 5F high fidelity pressure sensitive tip transducer (Millar Instruments, Houston, Tex.) placed in the left ventricular cavity via the apex and secured with a purse string suture. A segment of the left anterior descending coronary artery (LAD), proximal to the origin of the first diagonal branch, was dissected free of, surrounding tissue. A transmit time perivascular flow probe (Transonic Systems Inc., Ithaca, N.Y.) was placed around this segment to measure coronary blood flow (CBF). Proximal to the flow probe a 24 g modified angiocatheter was inserted for intracoronary infusions. […] A2A AdoR agonists were dissolved in DMSO to produce stock concentrations of 1-5 mM, which were diluted in 0.9% saline and infused at rates of 1-1.5 ml/min. The A2A AdoR agonists were administered intracoronary. To maintain blood pressure constant, phenylephrine was administered intravenously. The phenylephrine stock solution (30 mM) was prepared in distilled water.
Prior to initiating the experiment, a 30-minute stabilization period followed the completion of all instrumentation. After obtaining the baseline hemodynamic data the first intracoronary infusion of an A2A ADOR agonist was initiated. Infusions were maintained for 4-5 minutes to allow LAD CBF to reach a steadystate, after which the infusion was terminated. The time to recovery of 50% (t 0.5) and 90% (t 0.9) of baseline CBF were recorded. Ten to 15 minutes after CBF returned to pre-drug values a second infusion with a different agonist was started. […] The effect of a maximum of three different agonists was determined in each experiment.

A1 AdoR [2] = molecular target: T1, A1 AdoR (Cavia porcellus, UniProt P47745); assay: Stimulus-to-His-bundle (S-H) interval in guinea pig isolated perfused hearts; conditions: concentrations as high as 50 μM
T1 construct: from tissue; host or cells: Hartley guinea pig isolated perfused heart
T1 sequence (P47745 1-326): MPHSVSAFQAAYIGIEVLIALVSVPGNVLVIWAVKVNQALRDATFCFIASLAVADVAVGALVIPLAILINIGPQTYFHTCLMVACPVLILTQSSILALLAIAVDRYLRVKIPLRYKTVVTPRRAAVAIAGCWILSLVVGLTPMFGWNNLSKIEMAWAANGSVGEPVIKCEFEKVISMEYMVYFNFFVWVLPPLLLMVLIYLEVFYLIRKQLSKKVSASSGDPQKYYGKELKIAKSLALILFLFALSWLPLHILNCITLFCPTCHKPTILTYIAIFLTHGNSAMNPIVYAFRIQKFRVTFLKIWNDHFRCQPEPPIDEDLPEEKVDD
Method: (§1) Rats and guinea pigs, of either sex weighing from 230 to 260 grams and 300 to 350 grams, respectively, were used in this study. Animals were anesthetized by peritoneal injection of a cocktail containing ketamine and xylazine (ketamine 100 mg, xylazine 20 mg/ml). The chest was opened and the heart quickly removed. The heart was briefly rinse in ice-cold Krebs-Henseleit solution (see below), and the aorta cannulated. […]
(§2) A1 adenosine receptor-mediated depression of A-V nodal conduction time (negative dromotropic effect) was measured. Atrial and ventricular surface electrograms in rats and H is bundle electrogram in guinea pigs, were recorded during constant atrial pacing. The effects of Compound 18 on atrioventricular conduction time and stimulus-to-His-bundle (S-H interval) were determined as described previously by Jenkins and Belardinelli (1988).
The effects of Compound 18 on coronary conductance (A2A effect) and atrioventricular conduction time or stimulus-to-His-bundle (S-H) interval (A1 effect) was then determined. […] In each experiment, concentration-response relationship of Compound 18 (n=5 rats, 5 guinea pigs) to increase coronary conductance and to prolong A-V conduction time or S-H interval was determined. […]

A2A receptor = A2A receptor (Sus scrofa, UniProt K9IW67); assay: Affinity for the A2A receptor in a pig striatum membrane prep (displacement of tritiated ZM 241385); type: binding; conditions: pig striatal membranes, tritiated ZM 241385 2 nM, 23 C 2 h; read-out: A2a Ki
Chain of A2A receptor (K9IW67 1-409): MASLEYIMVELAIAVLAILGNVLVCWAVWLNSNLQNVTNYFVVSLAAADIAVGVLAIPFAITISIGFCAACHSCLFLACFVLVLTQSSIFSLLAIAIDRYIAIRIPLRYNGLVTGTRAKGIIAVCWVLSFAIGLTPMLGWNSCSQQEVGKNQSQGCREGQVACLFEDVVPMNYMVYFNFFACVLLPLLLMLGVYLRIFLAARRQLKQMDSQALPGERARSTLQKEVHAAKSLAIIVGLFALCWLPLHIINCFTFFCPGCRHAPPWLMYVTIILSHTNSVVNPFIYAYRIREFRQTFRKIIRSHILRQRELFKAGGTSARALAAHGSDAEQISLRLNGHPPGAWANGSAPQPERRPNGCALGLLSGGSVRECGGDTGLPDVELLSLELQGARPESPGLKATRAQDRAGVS
Method: Compounds of this invention were assayed to determine their affinity for the A2A receptor in a pig striatum membrane prep. Briefly, 0.2 mg of pig striatal membranes were treated with adenosine deaminase and 50 mM Tris buffer (pH=7.4) followed by mixing. […] After incubation at 23 C for 2 h, then the solutions were filtered using a membrane harvester using multiple washing of the membranes (3×). The filter disks were counted in scintillation cocktail affording the amount of displacement of tritiated ZM by the competitive binding compounds of this invention. Greater than a 5 point curve was used to generate IC50's and the number of experiments is indicated in the column marked in Table 1 below.

A2A AdoR [3] = molecular target: A2A AdoR (Rattus norvegicus, UniProt P30543); assay: Increase of coronary conductance in rat isolated perfused hearts
Chain of A2A AdoR (Rattus norvegicus, UniProt P30543) (P30543 whole entry, the tested form may be a part): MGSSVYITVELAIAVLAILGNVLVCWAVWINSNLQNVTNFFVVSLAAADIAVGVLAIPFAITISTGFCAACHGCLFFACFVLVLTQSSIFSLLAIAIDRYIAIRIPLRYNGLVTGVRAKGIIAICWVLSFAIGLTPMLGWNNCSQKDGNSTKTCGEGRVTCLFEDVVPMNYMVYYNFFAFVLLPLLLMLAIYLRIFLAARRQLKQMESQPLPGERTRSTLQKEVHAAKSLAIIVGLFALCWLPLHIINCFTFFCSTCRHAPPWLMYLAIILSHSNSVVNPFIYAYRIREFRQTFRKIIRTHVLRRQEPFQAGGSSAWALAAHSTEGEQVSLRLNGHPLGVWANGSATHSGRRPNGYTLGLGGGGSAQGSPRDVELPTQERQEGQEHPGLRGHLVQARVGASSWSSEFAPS
Method: (§3) Adult Sprague Dawley rats and Hartley guinea pigs of either sex weighing from 230 to 260 grams and 300 to 350 grams, respectively were used in this study. Animals were anesthetized by peritoneal injection of a cocktail containing ketamine and xylazine (ketamine 100 mg, xylazin 20 mg/ml). The chest was opened and the heart quickly removed. The heart was briefly rinse in ice-cold Krebs-Henseleit solution (see below), and the aorta cannulated. […] The heart was electrically paced at a fixed cycle length of 340 ms (250 beats/min) using a bipolar electrode place on the left atrium. The electrical stimuli were generated by a Grass stimulator (Model S48, W. Warwick, R.I.) and delivered through a Stimuli Isolation Unit (Model SIU5, Astro-Med, Inc., NY) as square-wave pulses of 3-msec in duration and amplitude of at least twice the threshold intensity.
Coronary perfusion pressure (CPP) was measured using a pressure transducer, connected to the aortic cannula via a T-connector positioned approximately 3 cm above the heart. Coronary perfusion pressure was monitored throughout the experiment and recorded either on a chart recorder (Gould Recorder 2200S) or a computerized recording system (PowerLab/4S, ADinstruments Pty Ltd, Australia). Only hearts with CPP ranging from 60 to 85 mmHg (in the absence of drugs) were used in the study.
One concentration was made from the stock solution by dilution into saline to yield solution of either 2×10^−4 or 2×10^−5 M. These solutions were injected into the perfusion line of the apparatus as boluses of 20 μl. In some experiments the solutions were placed into a 30 ml glass syringe and the drugs were infused at rates necessary to achieve the desired perfusate concentrations (e.g, 10, 100 nM, etc).
Hearts were instrumented for continuous recording of coronary perfusion pressure (A2A response) and atrioventricular (A-V) conduction time or S-H interval (A1 response).

human A1 AdoR = molecular target: T2, human A1 AdoR (Homo sapiens, UniProt P30542); assay: Competition binding, [3H]DPCPX binding sites on CHO-hA1AdoR cell membranes; conditions: Gpp(NH)p 100 μM
T2 construct: expressed in transfected cells
T2 sequence (P30542 1-326): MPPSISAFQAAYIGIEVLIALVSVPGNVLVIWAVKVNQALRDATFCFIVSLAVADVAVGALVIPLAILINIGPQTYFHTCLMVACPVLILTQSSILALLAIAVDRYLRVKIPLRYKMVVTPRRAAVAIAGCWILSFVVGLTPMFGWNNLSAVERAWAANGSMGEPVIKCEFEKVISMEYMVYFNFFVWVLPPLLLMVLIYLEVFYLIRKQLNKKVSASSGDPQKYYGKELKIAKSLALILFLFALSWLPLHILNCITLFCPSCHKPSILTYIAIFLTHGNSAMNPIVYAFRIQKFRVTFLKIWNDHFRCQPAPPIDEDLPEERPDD

A2A AdoR [4] = molecular target: A2A AdoR (Cavia porcellus, UniProt P46616); assay: Increase of coronary conductance in guinea pig isolated perfused hearts
Chain of A2A AdoR (Cavia porcellus, UniProt P46616) (P46616 whole entry, the tested form may be a part): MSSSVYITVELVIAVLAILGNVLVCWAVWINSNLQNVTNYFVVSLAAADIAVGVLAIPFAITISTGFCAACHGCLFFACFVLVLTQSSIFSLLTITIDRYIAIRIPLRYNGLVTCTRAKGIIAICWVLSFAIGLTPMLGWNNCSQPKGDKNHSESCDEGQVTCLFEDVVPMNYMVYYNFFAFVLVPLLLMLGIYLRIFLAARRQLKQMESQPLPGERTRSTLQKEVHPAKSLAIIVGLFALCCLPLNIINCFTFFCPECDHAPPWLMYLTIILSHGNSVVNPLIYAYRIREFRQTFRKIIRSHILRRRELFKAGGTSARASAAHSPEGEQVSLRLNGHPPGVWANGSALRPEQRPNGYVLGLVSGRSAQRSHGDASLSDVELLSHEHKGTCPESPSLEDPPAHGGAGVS
Method: as §3
Coronary perfusion pressure (CPP) was measured using a pressure transducer, connected to the aortic cannula via a T-connector positioned approximately 3 cm above the heart. Coronary perfusion pressure was monitored throughout the experiment and recorded either on a chart recorder (Gould Recorder 2200S) or a computerized recording system (PowerLab/4S, ADinstruments Pty Ltd, Australia). Only hearts with CPP ranging from 60 to 85 mmHg (in the absence of drugs) were used in the study. […]

A1 AdoR [5] = molecular target: T3, A1 AdoR (Rattus norvegicus, UniProt P25099); assay: A-V nodal conduction time (negative dromotropic effect) in rat isolated perfused hearts; conditions: Compound 18 0.1-30 μM, CVT510 100-400 nM
T3 construct: from tissue; host or cells: Sprague Dawley rat isolated perfused heart
T3 sequence (P25099 1-326): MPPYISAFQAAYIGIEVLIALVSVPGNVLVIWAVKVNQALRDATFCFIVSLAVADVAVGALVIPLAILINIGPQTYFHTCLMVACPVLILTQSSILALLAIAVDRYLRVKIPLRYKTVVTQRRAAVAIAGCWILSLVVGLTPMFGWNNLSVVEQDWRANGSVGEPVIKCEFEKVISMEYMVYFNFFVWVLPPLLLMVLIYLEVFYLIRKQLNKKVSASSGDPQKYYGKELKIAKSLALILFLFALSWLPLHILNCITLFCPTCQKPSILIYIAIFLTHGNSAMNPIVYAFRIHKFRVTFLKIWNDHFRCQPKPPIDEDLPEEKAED
Method: In experiments in which A1 adenosine receptor-mediated negative dromotropic effect was measured, atrial and ventricular surface electrograms were recorded during constant atrial pacing. The effect of various adenosine receptor agonists on atrioventricular conduction time was determined as described previously by Jenkins and Belardinelli Circ. Res. 63: 97-116 (1988).
as §1, §2
The effects of Compound 18 on coronary conductance (A2A effect) and atrioventricular conduction time or stimulus-to-His-bundle (S-H) interval (A1 effect) was then determined. […]

A2A AdoR [6] = assay: Closing statement of Example 8 on potency and efficacy as A2A AdoR agonist coronary vasodilator (test not specified)
human A2A AdoR = human A2A AdoR (Homo sapiens, UniProt P29274); assay: Competition binding, [3H]ZM241385 binding sites on HEK-hA2AAR cell membranes; conditions: for Ki: HEK-hA2AAR Cells, [3H]ZM241385, Gpp(NH)p 100 μM
Chain of human A2A AdoR (P29274 whole entry, the tested form may be a part): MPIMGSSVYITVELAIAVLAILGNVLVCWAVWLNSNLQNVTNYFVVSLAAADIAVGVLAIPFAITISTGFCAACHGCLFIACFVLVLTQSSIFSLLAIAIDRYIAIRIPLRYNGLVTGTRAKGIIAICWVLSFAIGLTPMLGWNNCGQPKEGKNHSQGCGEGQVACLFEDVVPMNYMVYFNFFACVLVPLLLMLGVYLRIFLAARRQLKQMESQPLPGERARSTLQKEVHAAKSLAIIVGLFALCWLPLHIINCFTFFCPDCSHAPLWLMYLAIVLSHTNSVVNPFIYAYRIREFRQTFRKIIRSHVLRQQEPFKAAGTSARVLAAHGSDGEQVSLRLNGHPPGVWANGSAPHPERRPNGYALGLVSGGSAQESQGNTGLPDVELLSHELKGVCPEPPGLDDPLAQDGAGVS
Method: To make membranes, cells were detached from the culture plates into ice-cold 50 mmol/L Tris-HCI buffer (pH7.4). The cell suspensions were homogenized with Polytron at setting 4 for 30 seconds, and spun at 48,000 g for 15 minutes. The pellets were washed three times by re-suspension in ice-cold Tris-HCI buffer and centrifugation. The final pellet was re-suspended in a small volume of Tris-HCI, aliquoted and frozen at −80° C. until used for receptor binding assays. The protein concentration of membrane suspensions was determined using the Bradford method (Bio-Rad) with bovine serum as standards.
At the end of incubation, bound and free radioligands were separated by filtration through Whatman GF/C glass fiber filters using a Brandel tissue harvester (Gaithersburg, Md.). Triplicate determinations were performed for each concentration of the competing agent.
The affinity (Ki) of various CVT compounds for the A1 and A2A adenosine receptor were determined by their potency to compete for [^3H]CPX (A1) or [^3H]ZM241385 (A2A) binding sites on membranes derived from CHO-hA1AdoR, PC12 or HEK-HA2AAdoR cells.

A2A adenosine receptor = A2A adenosine receptor (Rattus norvegicus, UniProt P30543); assay: Reversal time of coronary vasodilation after bolus injection in rat isolated perfused hearts; conditions: rat isolated perfused hearts, bolus into perfusion line
Chain of A2A adenosine receptor (P30543 whole entry, the tested form may be a part): as the sequence (P30543 whole entry, the tested form may be a part) above
Method: Animals were anesthetized by peritoneal injection of a cocktail containing ketamine and xylazine (ketamine 100 mg, xylazine 20 mg/ml). The chest was opened and the heart quickly removed. The heart was briefly rinse in ice-cold Krebs-Henseleit solution (see below), and the aorta cannulated. […] The heart was electrically paced at a fixed cycle length of 340 ms (250 beats/min) using a bipolar electrode place on the left atrium. The electrical stimuli were generated by a Grass stimulator (Model S48, W. Warwick, R.I) and delivered through a Stimuli Isolation Unit (Model SIU5, Astro-Med, Inc., NY) as square-wave pulses of 3 msec in duration and amplitude of at least twice the threshold intensity.
Coronary perfusion pressure (CPP) was measured using a pressure transducer, connected to the aortic cannula via a T-connector positioned approximately 3 cm above the heart. Coronary perfusion pressure was monitored throughout the experiment and recorded either on a chart recorder (Gould Recorder 2200S) or a computerized recording system (PowerLab/4S, ADInstruments Pty Ltd, Australia). Only hearts with CPP ranging from 60 to 85 mmHg (in the absence of drugs) were used in the study.
Protocol: Bolus injections. […] The times to 50% (t 0.5) and 90% (t 0.9) reversal of the decrease in CPP were measured. Each heart was exposed to a maximum of three vasodilators.

Compound: CCCCCn1cc(-c2nc(N)c3ncn([C@@H]4O[C@H](CO)[C@@H](O)[C@H]4O)c3n2)cn1 [Compound 18, (4S,2R,3R,5R)-2-[6-amino-2-(1-pentylpyrazol-4-yl)purin-9 yl]-5-(hydroxymethyl)oxolane-3,4-diol]
- CBF ("Fold Increase") above baseline, maximal (A2A AdoR [1]): 3.33 ± 0.58 fold
- t0.5, time to 50% reversal of the increase in coronary blood flow (A2A AdoR [1]): 3.1 ± 0.9 min
- t0.9, time to 90% reversal of the increase in coronary blood flow (A2A AdoR [1]): 12.0 ± 1.0 min
- effect on S-H interval (A1 AdoR [2]): no prolongation
- Ki (A2A receptor): 7.09 ± 0.78 µM
- EC50 (A2A AdoR [3]; EC50 to increase coronary conductance in rat hearts, Example 7, n=5 rats): 0.0689 ± 0.0096 µM
- EC50 (A2A AdoR [3]; Potency (EC50) to increase coronary conductance, Rat, rat isolated perfused hearts, Table 3): 0.0679 ± 0.0167 µM
- effect on coronary conductance (A2A AdoR [3]; isolated perfused hearts (36 rats and 18 guinea pigs), atrial cycle length 340 msec): concentration-dependent increase
- relative potency in increasing coronary conductance (A2A AdoR [3]; isolated perfused hearts, rat and guinea pig): about as potent as adenosine
- Ki (human A1 AdoR; read-out: Binding Affinity Ki, CHO-hA1AR): 5.84 µM
- Ki (human A1 AdoR; read-out: Binding Affinity pKi ± SEM, CHO-hA1AR (converted)): 5.75 µM
- EC50 (A2A AdoR [4]): 0.203 ± 0.022 µM
- effect on A-V nodal conduction time (A1 AdoR [5]): did not prolong
- agonist efficacy to cause coronary vasodilation (A2A AdoR [6]): full agonists
- less potent than the prototypical agonist CGS21680 (A2A AdoR [6]; relative to CGS21680): 10 fold
- greater affinity for A2A than A1 AdoR (human A2A AdoR; A2A vs A1 AdoR): > 2 fold
- Ki (human A2A AdoR; Binding Affinity Ki): 2.9 µM
- Ki (human A2A AdoR; Binding Affinity pKi ± SEM): 2.88 µM
- t 0.5, time to 50% reversal of the increase in coronary conductance (A2A adenosine receptor): 3.4 ± 0.5 min
- t 0.9, time to 90% reversal of the increase in coronary conductance (A2A adenosine receptor): 8.4 ± 2.2 min
